Measurements from ChEMBL document CHEMBL3885861, “Open TG-GATES”.

Species on record: Rattus norvegicus
Assay: Open TG-GATES - Regimen: Single
Format: toxicity, organism-based, Sprague-Dawley
Set-up: regimen Single, gender Male, age 6 weeks
Details: in vivo, po, 0 mg/kg, route gavage, dose level Control; for APTT / Bas / Eos / Fbg / Hb / Ht / Lym / MCH / MCHC / MCV / Mono / Neu / PT / Plat / RBC / Ret / WBC: tissue Blood; for KIDNEY_L / KIDNEY_R / KIDNEY_TOTAL: tissue Kidney; for LIVER: tissue Liver; for A/G / ALP / ALT / AST / BUN / CRE / Ca / Cl / DBIL / GLC / IP / K / LDH / Na / PL / RALB / TBIL / TC / TG / TP / gamma-GTP: tissue Plasma

Compound `CCOC(=O)[C@H](CCc1ccccc1)N[C@@H](C)C(=O)N1CCC[C@H]1C(=O)O` has a TERMINAL_BW (3 h) of 219.5 g, an APTT (3 h) of 16.4 s and a Bas (3 h) of 0%. It also gave an Eos (3 h) of 1%, a Fbg (3 h) of 205.6 mg/dL and a Hb (3 h) of 13.1 g/dL. It also gave a Ht (3 h) of 39.6%, a Lym (3 h) of 78.2% and an MCH (3 h) of 21.9 pg. It also gave an MCHC (3 h) of 33%, an MCV (3 h) of 66.3 fL and a Mono (3 h) of 8.2%. The Neu (3 h) was 13%, the PT (3 h) was 12.1 s and the Plat (3 h) was 115.4 x10_4/uL. It also gave an RBC (3 h) of 596.8 x10_4/ul, a Ret (3 h) of 9.2% and a WBC (3 h) of 96.8 x10_2/uL. For the same compound, the KIDNEY_L (3 h) was 1 g, the KIDNEY_R (3 h) was 1 g and the KIDNEY_TOTAL (3 h) was 2 g. For the same compound, the LIVER (3 h) was 10.5 g, the A/G (3 h) was 2.2 and the ALP (3 h) was 725.4 IU/L. The ALT (3 h) was 37.6 IU/L, the AST (3 h) was 66.2 IU/L and the BUN (3 h) was 13.8 mg/dL. The CRE (3 h) was 0.5 mg/dL, the Ca (3 h) was 11 mg/dL and the Cl (3 h) was 105.4 meq/L. It also gave a DBIL (3 h) of 0.008 mg/dL, a GLC (3 h) of 196.6 mg/dL and an IP (3 h) of 10.2 mg/dL. The K (3 h) was 4.8 meq/L, the LDH (3 h) was 79.2 IU/L and the Na (3 h) was 140.2 meq/L. The PL (3 h) was 146 mg/dL, the RALB (3 h) was 3.7 g/dL and the TBIL (3 h) was 0.3 mg/dL. The TC (3 h) was 77 mg/dL, the TG (3 h) was 70.8 mg/dL and the TP (3 h) was 5.3 g/dL. For the same compound, the gamma-GTP (3 h) was 1.4 IU/L, the TERMINAL_BW (6 h) was 212.8 g and the APTT (6 h) was 16.4 s. For the same compound, the Bas (6 h) was 0%, the Eos (6 h) was 1% and the Fbg (6 h) was 205.2 mg/dL. The Hb (6 h) was 13.2 g/dL, the Ht (6 h) was 39.9% and the Lym (6 h) was 76.2%. It also gave an MCH (6 h) of 21.6 pg, an MCHC (6 h) of 33% and an MCV (6 h) of 65.4 fL. For the same compound, the Mono (6 h) was 6.4%, the Neu (6 h) was 16.6% and the PT (6 h) was 12.2 s. The Plat (6 h) was 116.2 x10_4/uL, the RBC (6 h) was 609.4 x10_4/ul and the Ret (6 h) was 8.4%. It also gave a WBC (6 h) of 118.4 x10_2/uL, a KIDNEY_L (6 h) of 0.9 g and a KIDNEY_R (6 h) of 0.9 g. It also gave a KIDNEY_TOTAL (6 h) of 1.9 g, an LIVER (6 h) of 9.5 g and an A/G (6 h) of 2.2. It also gave an ALP (6 h) of 837.6 IU/L, an ALT (6 h) of 34.6 IU/L and an AST (6 h) of 65.6 IU/L. For the same compound, the BUN (6 h) was 9.8 mg/dL, the CRE (6 h) was 0.5 mg/dL and the Ca (6 h) was 10.8 mg/dL. The Cl (6 h) was 105.2 meq/L, the DBIL (6 h) was 0.022 mg/dL and the GLC (6 h) was 198.6 mg/dL. It also gave an IP (6 h) of 9.9 mg/dL, a K (6 h) of 4.7 meq/L and an LDH (6 h) of 74 IU/L. It also gave a Na (6 h) of 139.4 meq/L, a PL (6 h) of 130.6 mg/dL and an RALB (6 h) of 3.7 g/dL. The TBIL (6 h) was 0.4 mg/dL, the TC (6 h) was 73 mg/dL and the TG (6 h) was 46.8 mg/dL. For the same compound, the TP (6 h) was 5.4 g/dL, the gamma-GTP (6 h) was 1.6 IU/L and the TERMINAL_BW (9 h) was 215 g. For the same compound, the APTT (9 h) was 16.5 s, the Bas (9 h) was 0% and the Eos (9 h) was 1.2%. For the same compound, the Fbg (9 h) was 215.4 mg/dL, the Hb (9 h) was 13 g/dL and the Ht (9 h) was 39.6%. The Lym (9 h) was 81.4%, the MCH (9 h) was 21.9 pg and the MCHC (9 h) was 32.8%. For the same compound, the MCV (9 h) was 66.8 fL, the Mono (9 h) was 5% and the Neu (9 h) was 12.8%. The PT (9 h) was 11.7 s, the Plat (9 h) was 112.2 x10_4/uL and the RBC (9 h) was 593.2 x10_4/ul. For the same compound, the Ret (9 h) was 8.7%, the WBC (9 h) was 113.3 x10_2/uL and the KIDNEY_L (9 h) was 1 g. For the same compound, the KIDNEY_R (9 h) was 1 g, the KIDNEY_TOTAL (9 h) was 1.9 g and the LIVER (9 h) was 9.4 g. For the same compound, the A/G (9 h) was 2.1, the ALP (9 h) was 772.2 IU/L and the ALT (9 h) was 31.2 IU/L. The AST (9 h) was 60.8 IU/L, the BUN (9 h) was 13.6 mg/dL and the CRE (9 h) was 0.4 mg/dL. It also gave a Ca (9 h) of 10.7 mg/dL, a Cl (9 h) of 106.6 meq/L and a DBIL (9 h) of 0.022 mg/dL. For the same compound, the GLC (9 h) was 192.6 mg/dL, the IP (9 h) was 10.1 mg/dL and the K (9 h) was 4.8 meq/L. The LDH (9 h) was 69.8 IU/L, the Na (9 h) was 139 meq/L and the PL (9 h) was 133.4 mg/dL. It also gave an RALB (9 h) of 3.8 g/dL, a TBIL (9 h) of 0.4 mg/dL and a TC (9 h) of 69.6 mg/dL. The TG (9 h) was 49.2 mg/dL, the TP (9 h) was 5.5 g/dL and the gamma-GTP (9 h) was 1.6 IU/L. For the same compound, the TERMINAL_BW (24 h) was 230.9 g, the APTT (24 h) was 16.3 s and the Bas (24 h) was 0%. The Eos (24 h) was 1.4%, the Fbg (24 h) was 203.8 mg/dL and the Hb (24 h) was 13.2 g/dL. The Ht (24 h) was 39.8%, the Lym (24 h) was 71.6% and the MCH (24 h) was 21.6 pg. The MCHC (24 h) was 33.1%, the MCV (24 h) was 65.3 fL and the Mono (24 h) was 8.2%. It also gave a Neu (24 h) of 19%, a PT (24 h) of 11.2 s and a Plat (24 h) of 117.1 x10_4/uL. It also gave an RBC (24 h) of 609.4 x10_4/ul, a Ret (24 h) of 8.3% and a WBC (24 h) of 114 x10_2/uL. For the same compound, the KIDNEY_L (24 h) was 1.1 g, the KIDNEY_R (24 h) was 1 g and the KIDNEY_TOTAL (24 h) was 2.1 g. It also gave an LIVER (24 h) of 11 g, an A/G (24 h) of 2.4 and an ALP (24 h) of 834.2 IU/L. It also gave an ALT (24 h) of 39.8 IU/L, an AST (24 h) of 62.6 IU/L and a BUN (24 h) of 18 mg/dL. The CRE (24 h) was 0.5 mg/dL, the Ca (24 h) was 10.9 mg/dL and the Cl (24 h) was 106.4 meq/L. The DBIL (24 h) was 0.012 mg/dL, the GLC (24 h) was 198.8 mg/dL and the IP (24 h) was 8.5 mg/dL. It also gave a K (24 h) of 5.2 meq/L, an LDH (24 h) of 86.4 IU/L and a Na (24 h) of 141 meq/L. It also gave a PL (24 h) of 155 mg/dL, an RALB (24 h) of 3.9 g/dL and a TBIL (24 h) of 0.4 mg/dL. For the same compound, the TC (24 h) was 80 mg/dL, the TG (24 h) was 84.6 mg/dL and the TP (24 h) was 5.5 g/dL. The gamma-GTP (24 h) was 1.2 IU/L.
